Measured values taken from patent US9605064B2, “Methods and compositions for treatment of skin disorders” (AbbVie Biotechnology Ltd, priority 2006, dated 2017).
Marks after values point to notes of the source that are not given here.

Columns and labels:
[1] = tested on: patients with moderate to severe plaque psoriasis; test: PGA, 12-week open-label weekly therapy then randomized eow or withdrawal; format: in vivo, human
[2] = tested on: patients with moderate to severe chronic plaque psoriasis; test: PASI response, CHAMPION 16-week Phase III trial vs methotrexate and placebo; format: in vivo, human; details: for PASI 75 Response Rates, % Patients / PASI 90 Response Rates, % Patients: missing PASI = non-responder
Experimental: Analytical methods included the following: • Intention-to-treat analyses were performed for all randomized patients • Missing data were analyzed using non-responder imputation (NRI) • PASI 75 at Week 16 (primary endpoint) was analyzed using adjusted Cochran-Mantel-Haenszel test.

[3] = tested on: patients with chronic plaque psoriasis; test: PGA, 16-week open-label Phase IIIb trial after suboptimal response to ETN, MTX or NB-UVB; format: in vivo, human; details: week 16
From the text: (§1) This 16-week, multicenter, open-label, Phase IIIb trial enrolled patients with chronic plaque psoriasis who were having a suboptimal response to ETN (Physician's Global Assessment [PGA]≧mild with months of therapy, or ≧3 months of therapy and deterioration of efficacy), MTX (PGA≧mild with ≧4 months of therapy), or narrow-band ultraviolet B (NB-UVB) phototherapy (PGA moderate with months of therapy). […] The primary endpoint was the proportion of patients who achieved PGA of clear or minimal at week 16. A secondary endpoint was the proportion achieving ≧1 grade of PGA improvement. Safety was assessed throughout the study. Efficacy analyses were intention to treat, with nonresponder imputation used for missing data. Efficacy and safety results were analyzed overall and for each prior-treatment group.

[4] = tested on: patients with chronic plaque psoriasis; test: Safety, 16-week open-label Phase IIIb trial after suboptimal response to ETN, MTX or NB-UVB
From the text: as §1

[5] = tested on: adult patients with moderate to severe chronic plaque psoriasis; test: PASI response and loss of adequate response, REVEAL 52-week Phase III trial; format: in vivo, human; details: for PASI 100 Response Rates, % Patients: n = 814, ITT, NRI; for Mean Percentage PASI Improvement During Period B: relative to baseline, patients randomized to adalimumab who entered Period B, as observed; for patients with loss of adequate response: Week 33 PASI 75 responders re-randomized to continue adalimumab in period C, by Week 52
From the text: The main inclusion criteria for this study included a clinical diagnosis of psoriasis for ≧6 months and affected body surface area (BSA)≧10% and PASI≧12. The main exclusion criteria included prior use of systemic or biologic anti-TNF therapy. The washout period included two weeks for topical agents and UVB, 4 weeks for PUVA and non-biologic systemic therapies, and 12 weeks for all biologic therapies. The two co-primary endpoints were: • Percentage of patients achieving PASI≧75 at Week 16 • Percentage of patients, among Week 33 PASI≧75 responders, losing an adequate response after Week 33, characterized by: • PASI<50 (relative to baseline) and • At least a 6 point increase in PASI
Period A was double-blind, placebo-controlled, and lasted from weeks 0-16. […] At Week 16 patients who achieved ≧PASI 75 improvement continued into Period B, while those patients having <PASI 75 improvement entered the open label extension (OLE) study (FIG. 7).
Period B was open-label and lasted from Weeks 17-33. […] Patients who achieved ≧PASI 75 response at Week 33 entered Period C.
Period C was a double-blind, placebo-controlled which was held from weeks 34-52.
Various analytical methods were used in the study. Intention-to-treat (ITT) analyses were performed for all randomized patients in Periods A and C. […] Week 24 results from NRI analysis include pooled efficacy outcomes from OLE and Period B. After Week 24, non-overlapping OLE and Period B study visits prevent complete pooling of efficacy outcomes. Continuous variables were analyzed as observed during Period B
The REVEAL study had two independent primary endpoints. The first endpoint was the proportion of patients achieving 75 percent improvement in skin clearance after 16 weeks. The second endpoint was the proportion of patients who lost adequate response through week 52 after stopping treatment with HUMIRA at week 33. Signs of psoriasis were evaluated using the Psoriasis Area and Severity Index (PASI), among other measures. […] At week 52, the start of the OLE period, patients randomized at week 33, as well as patients originally in the placebo group at week 0, were able to enter the OLE period.

[6] = tested on: patients with moderate to severe psoriasis; test: PASI 75 response, pooled Phase II (M02-528), CHAMPION and REVEAL by prior systemic therapy; format: in vivo, human; details: for PASI 75 Response: Overall: pooled studies, ITT, missing = nonresponder
Experimental: For the Phase III studies, study investigators collected patient histories of use of systemic psoriasis treatments over lifetime and response to systemic treatments administered within 12 months of study entry (patient recall of response to treatments administered more than 12 months before enrollment was not collected). For the Phase II study, patient histories of use of systemic treatments for psoriasis administered within 12 months of study entry and response to treatment within 12 months were collected. PASI response rates were assessed through Week 12 for the Phase II study and through Week 16 for the Phase III studies. Intention-to-treat analyses were conducted, with patients with missing PASI responses considered non-responders.

[7] = tested on: patients with moderate to severe psoriasis; test: PGA, open-label extension of REVEAL; format: in vivo, human; details: for PGA “Clear” or “Minimal”: n = 233, ITT, LOCF
Experimental: Laboratory parameters and adverse events were also recorded.

For “Adalimumab: a human anti-TNF mAb, described in U.S. Pat. No. 6,090,382 as D2E7 (HUMIRA, Abbott Laboratories)”, the “PGA “Clear” or “Minimal”” value ([1]; open-label 40 mg weekly, Week 12) was 66%, the “PGA “Clear” or “Minimal”” value ([1]; randomized to 40 mg eow at Week 12, Week 24) was 54.4% and the “mean percentage PASI improvement” value ([2]; Week 4) was 57%. For the same substance, the “PASI 75 Response Rates, % Patients” value ([2]; Week 4, ITT) was 23*† %, the “PASI 90 Response Rates, % Patients” value ([2]; Week 4, ITT) was 7* % and the “PASI 75 Response Rates, % Patients” value ([2]; Week 8, ITT) was 62‡ %. For the same substance, the “PASI 90 Response Rates, % Patients” value ([2]; Week 8, ITT) was 27†‡ %, the “PASI 75 Response Rates, % Patients” value ([2]; Week 12, ITT) was 77‡ % and the “PASI 90 Response Rates, % Patients” value ([2]; Week 12, ITT) was 48†‡ %. For the same substance, the “PASI 75” value ([2]; Week 16, ITT, NRI) was 80%, the “PASI 75 Response Rates, % Patients” value ([2]; Week 16, ITT) was 80‡ % and the “PASI 90 Response Rates, % Patients” value ([2]; Week 16, ITT) was 52†‡ %. For the same substance, the “PASI 75 Response Rates, % Patients” value ([2]; Week 16, ITT, listed as ADA) was 79.6% * †, the “PASI 90 Response Rates, % Patients” value ([2]; Week 16, ITT, listed as ADA) was 51.9% * † and the “PASI 50 response rate” value ([2]; Week 16 of CHAMPION, ITT, NRI) was 88.0% * †. The “PASI 100 response rate” value ([2]; Week 16 of CHAMPION, ITT, NRI) was 16.7% ‡ §, the “≧1 grade improvement in PGA” value ([3]; all patients) was 75.0% and the “PGA of clear or minimal” value ([3]; prior ETN group) was 48.8%. For the same substance, the “≧1 grade improvement in PGA” value ([3]; prior ETN group) was 72.0%, the “PGA of clear or minimal” value ([3]; prior MTX group) was 61.0% and the “≧1 grade improvement in PGA” value ([3]; prior MTX group) was 78.0%. For the same substance, the “PGA of clear or minimal” value ([3]; prior NB-UVB group) was 48.3%, the “≧1 grade improvement in PGA” value ([3]; prior NB-UVB group) was 79.3% and the malignancies ([4]; 16-week trial) was “no malignancies were reported”. The “patients with >25% worsening in PASI scores” value ([4]; all patients (2 MTX, 2 ETN)) was 2.6%, the “PASI 100 Response Rates, % Patients” value ([5]; Week 4, double-blind) was 0.9% and the “PASI 100 Response Rates, % Patients” value ([5]; Week 8, double-blind) was 7.1* %. For the same substance, the “PASI 100 Response Rates, % Patients” value ([5]; Week 12, double-blind) was 14.4* %, the “PASI 100 Response Rates, % Patients” value ([5]; Week 16, double-blind) was 20* % and the “Mean Percentage PASI Improvement During Period B” value ([5]; Week 16) was 91.9%. For the same substance, the “PASI 100 Response Rates, % Patients” value ([5]; Week 24, open-label, pooled Period B and OLE) was 22.5* %, the “Mean Percentage PASI Improvement During Period B” value ([5]; Week 24) was 91.2% and the “Mean Percentage PASI Improvement During Period B” value ([5]; Week 33) was 89.3%. The “patients with loss of adequate response” value [5] was 4.9* %, the “patients with loss of adequate response” value ([5]; listed as adalimumab) was 5% and the “PASI 75 Response: Overall” value ([6]; Week 4) was 19.4%. The “PASI 75 Response: Overall” value ([6]; Week 12) was 68.1%, the “PASI 75 Response: Lack of Response: MTX” value ([6]; Week 16, patients with prior lack of response to MTX (N = 32)) was 65.6% * (N = 32) and the “PASI 75 Response: Lack of Response: Cyclosporine” value ([6]; Week 16, patients with prior lack of response to cyclosporine (N = 7)) was 71.4% (N = 7). The “PASI 75 Response: Lack of Response: Oral PUVA” value ([6]; Week 16, patients with prior lack of response to oral PUVA (N = 6)) was 83.3% (N = 6), the “PASI 75 response rate” value ([6]; overall (n=921), Week 16) was 72.1% and the “PASI 75 response rate” value ([6]; overall (n=966), Week 4) was 19.4%. For the same substance, the “PASI 75 response rate” value ([6]; patients who had failed to respond to systemic therapy (n=152), Week 16) was 70.4%, the “PASI 75 response rate” value ([6]; patients who had failed to respond to systemic therapy (n=160), Week 4) was 15.6% and the “PASI 75 response rate” value ([6]; patients who had received systemic therapies (n=491), Week 16) was 72.7%. The “PASI 75 response rate” value ([6]; patients who had received systemic therapies (n=511), Week 4) was 21.7%, the “PGA scores of “clear” or “minimal” value ([7]; OLE of REVEAL) was 74% and the “PGA “Clear” or “Minimal”” value ([7]; Week 0 of OLE) was 70%. The “PGA “Clear” or “Minimal”” value ([7]; Week 12 of OLE) was 71% and the “PGA “Clear” or “Minimal”” value ([7]; Week 24 of OLE) was 74%.
